ChEMBL document CHEMBL4118139, “Novel naphthyloxy derivatives - Potent histamine H3 receptor ligands. Synthesis and pharmacological evaluation” (Bioorg Med Chem, 2018)
The source made the active and inactive calls. No cut-off for these calls is given here.

How the values were obtained:
Histamine H3 receptor = Histamine H3 receptor (Homo sapiens, UniProt Q9Y5N1); assay: Displacement of [3H]N-alpha-methylhistamine from full length human H3 receptor expressed in HEK293 cell membranes after 90 mins
Chain of Histamine H3 receptor (Q9Y5N1 whole entry): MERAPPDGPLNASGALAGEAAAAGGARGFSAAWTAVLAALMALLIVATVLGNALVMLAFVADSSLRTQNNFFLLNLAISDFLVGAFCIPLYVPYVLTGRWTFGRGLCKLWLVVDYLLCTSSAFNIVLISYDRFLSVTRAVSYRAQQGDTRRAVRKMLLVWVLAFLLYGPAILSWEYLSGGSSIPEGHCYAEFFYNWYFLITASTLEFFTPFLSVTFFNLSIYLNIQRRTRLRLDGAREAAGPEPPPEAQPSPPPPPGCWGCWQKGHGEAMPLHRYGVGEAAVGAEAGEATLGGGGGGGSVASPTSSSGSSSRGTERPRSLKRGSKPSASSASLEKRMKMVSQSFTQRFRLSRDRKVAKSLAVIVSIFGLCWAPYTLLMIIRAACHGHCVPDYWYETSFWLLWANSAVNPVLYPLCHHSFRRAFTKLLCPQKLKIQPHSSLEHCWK

Mus musculus [1] = assay: Neurotoxicity in albino CF-1 mouse at 50 mg/kg, ip after 2 hrs by rotarod test; assay type: toxicity, organism-based; conditions: in vivo
Mus musculus [2] = assay: Neurotoxicity in albino CF-1 mouse assessed as increase in subcutaneous pentylenetetrazole-induced continuous seizures at 50 mg/kg, ip measured after 0.5 hrs; assay type: toxicity, organism-based; conditions: in vivo
Mus musculus [3] = assay: Neurotoxicity in albino CF-1 mouse at 65 mg/kg after 4 hrs by rotarod test; assay type: toxicity, organism-based; conditions: in vivo
Mus musculus [4] = assay: Neurotoxicity in albino CF-1 mouse at 65 mg/kg after 0.5 hrs by rotarod test; assay type: toxicity, organism-based; conditions: in vivo
[5] = Therapeutic index, ratio of ip dosed albino CF-1 mouse TD50 to ip dosed albino CF-1 mouse ED50 for 32 mA current-induced 6 Hz psychomotor test; assay type: toxicity, organism-based; conditions: in vivo, read-out: TI
Mus musculus [6] = assay: Neurotoxicity in albino CF-1 mouse at 30 mg/kg, ip after 0.5 hrs by rotarod test; assay type: toxicity, organism-based; conditions: in vivo
Rattus norvegicus [7] = assay: Anticonvulsant activity in Sprague-Dawley rat assessed as protection against maximal electroshock-induced seizures at 65 mg/kg, po after 0.25 hrs; assay type: functional, organism-based
Mus musculus [8] = assay: Neurotoxicity in albino CF-1 mouse at 30 mg/kg, ip after 0.25 hrs by rotarod test; assay type: toxicity, organism-based; conditions: in vivo
Mus musculus [9] = assay: Anticonvulsant activity in ip dosed albino CF-1 mouse assessed as protection against maximal electroshock-induced seizures after 1 hr; assay type: functional; conditions: CF-1, ip
Mus musculus [10] = assay: Neurotoxicity in albino CF-1 mouse at 30 mg/kg, ip after 2 hrs by rotarod test; assay type: toxicity, organism-based; conditions: in vivo
Salmonella typhimurium [11] = assay: Mutagenicity in Salmonella typhimurium TA100 assessed as increase in number of revertants at 10 uM after 90 mins by Ames test; assay type: toxicity, organism-based; conditions: salmonella enterica subsp. enterica serovar typhimurium, 1.5 h
[12] = Therapeutic index, ratio of ip dosed Sprague-Dawley rat TD50 to ip dosed Sprague-Dawley rat ED50 for MES assay; assay type: toxicity, organism-based; conditions: in vivo, read-out: TI
Mus musculus [13] = assay: Neurotoxicity in albino CF-1 mouse at 65 mg/kg after 0.25 hrs by rotarod test; assay type: toxicity, organism-based; conditions: in vivo
Rattus norvegicus [14] = assay: Anticonvulsant activity in Sprague-Dawley rat assessed as protection against maximal electroshock-induced seizures at 30 mg/kg, po after 0.5 hrs; assay type: functional, organism-based
Rattus norvegicus [15] = assay: Anticonvulsant activity in Sprague-Dawley rat assessed as protection against maximal electroshock-induced seizures at 30 mg/kg, ip after 0.25 hrs; assay type: functional, organism-based
[16] = biological target: 5-hydroxytryptamine receptor 7 (Homo sapiens, UniProt P34969); assay: Displacement of [3H]-5-carboxyamidotryptamine from human 5-HT7 receptor expressed in HEK293 cell membranes after 1 hr
Chain of 5-hydroxytryptamine receptor 7 (P34969 whole entry): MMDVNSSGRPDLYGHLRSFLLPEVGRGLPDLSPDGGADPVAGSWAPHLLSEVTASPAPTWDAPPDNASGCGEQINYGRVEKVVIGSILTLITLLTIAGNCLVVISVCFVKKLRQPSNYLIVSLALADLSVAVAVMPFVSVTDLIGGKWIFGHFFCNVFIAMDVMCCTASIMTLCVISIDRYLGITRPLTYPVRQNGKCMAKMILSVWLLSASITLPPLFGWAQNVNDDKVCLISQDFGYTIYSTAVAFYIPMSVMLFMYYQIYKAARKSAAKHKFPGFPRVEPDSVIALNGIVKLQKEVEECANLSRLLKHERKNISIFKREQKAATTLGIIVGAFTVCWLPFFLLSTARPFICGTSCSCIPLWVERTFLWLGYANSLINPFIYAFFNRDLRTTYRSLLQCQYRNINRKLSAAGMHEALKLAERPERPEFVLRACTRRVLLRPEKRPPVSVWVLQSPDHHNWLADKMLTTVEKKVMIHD

[17] = Neurotoxicity in ip dosed Sprague-Dawley rat after 0.25 hrs by rotarod test; assay type: toxicity, organism-based; conditions: in vivo
Mus musculus [18] = assay: Anticonvulsant activity in albino CF-1 mouse assessed as protection against maximal electroshock-induced seizures at 50 mg/kg, ip after 1 hr; assay type: functional, organism-based
[19] = biological target: Histamine H1 receptor (Cavia porcellus) (UniProt P31389); assay: Agonist activity at histamine H1 receptor in guinea-pig ileum assessed as induction of contractions at 1 to 3 uM after 15 mins; assay type: functional
Chain of Histamine H1 receptor (Cavia porcellus) (P31389 whole entry): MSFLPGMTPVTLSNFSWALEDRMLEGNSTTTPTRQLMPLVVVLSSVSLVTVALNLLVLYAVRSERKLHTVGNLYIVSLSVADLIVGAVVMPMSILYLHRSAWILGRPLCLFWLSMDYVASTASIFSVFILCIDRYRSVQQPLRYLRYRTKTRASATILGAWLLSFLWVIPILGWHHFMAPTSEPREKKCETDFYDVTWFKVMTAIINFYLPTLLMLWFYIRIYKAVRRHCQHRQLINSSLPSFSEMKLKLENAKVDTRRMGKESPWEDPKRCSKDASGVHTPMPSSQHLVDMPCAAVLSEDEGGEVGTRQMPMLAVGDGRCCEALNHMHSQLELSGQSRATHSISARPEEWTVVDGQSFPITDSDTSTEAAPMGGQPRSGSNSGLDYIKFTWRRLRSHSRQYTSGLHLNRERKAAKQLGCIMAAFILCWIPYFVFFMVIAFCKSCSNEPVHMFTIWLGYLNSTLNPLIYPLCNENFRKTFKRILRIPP

Mus musculus [20] = assay: Effect on spontaneous locomotor activity in ip dosed albino Swiss CD1 mouse assessed as inhibition of number of light beam crossings treated for 30 mins measured for next 30 mins in 10 min intervals; assay type: organism-based; conditions: in vivo, 0.5 h
[21] = biological target: D(2) dopamine receptor (Homo sapiens) (UniProt P14416); assay: Displacement of [3H]-spiperone from human dopamine D2 receptor expressed in CHO cell membranes at 1 uM relative to haloperidol
Chain of D(2) dopamine receptor (Homo sapiens) (P14416 whole entry): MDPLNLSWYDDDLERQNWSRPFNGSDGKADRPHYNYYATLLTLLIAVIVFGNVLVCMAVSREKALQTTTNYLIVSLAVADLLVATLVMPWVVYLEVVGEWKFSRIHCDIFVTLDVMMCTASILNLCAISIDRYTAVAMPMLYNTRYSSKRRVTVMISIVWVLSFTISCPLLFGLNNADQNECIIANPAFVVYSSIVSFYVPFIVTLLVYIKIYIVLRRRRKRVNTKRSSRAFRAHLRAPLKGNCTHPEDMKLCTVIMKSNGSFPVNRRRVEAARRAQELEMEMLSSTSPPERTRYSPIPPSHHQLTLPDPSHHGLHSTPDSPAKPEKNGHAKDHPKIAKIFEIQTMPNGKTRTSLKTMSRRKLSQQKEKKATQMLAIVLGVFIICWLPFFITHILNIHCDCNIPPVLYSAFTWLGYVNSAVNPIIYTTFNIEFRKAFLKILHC

Mus musculus [22] = assay: Neurotoxicity in albino CF-1 mouse at 50 mg/kg, ip after 1 hr by rotarod test; assay type: toxicity, organism-based; conditions: in vivo
Salmonella typhimurium [23] = assay: Mutagenicity in Salmonella typhimurium TA100 assessed as increase in number of revertants at 1 uM after 90 mins by Ames test; assay type: toxicity, organism-based; conditions: salmonella enterica subsp. enterica serovar typhimurium, 1.5 h
Mus musculus [24] = assay: Neurotoxicity in albino CF-1 mouse at 50 mg/kg after 2 hrs by rotarod test; assay type: toxicity, organism-based; conditions: in vivo
Rattus norvegicus [25] = assay: Anticonvulsant activity in Sprague-Dawley rat assessed as protection against maximal electroshock-induced seizures at 30 mg/kg, ip after 2 hrs; assay type: functional, organism-based
[26] = Neurotoxicity in po dosed Sprague-Dawley rat after 0.25 hrs by rotarod test; assay type: toxicity, organism-based; conditions: in vivo
Rattus norvegicus [27] = assay: Anticonvulsant activity in ip Sprague-Dawley rat assessed as protection against subcutaneous pentylenetetrazole-induced seizures measured after 0.25 hrs; assay type: functional
Mus musculus [28] = assay: Anticonvulsant activity in albino CF-1 mouse assessed as protection against 44 mA current-induced seizure at 50 mg/kg, ip after 0.25 hrs by 6 Hz psychomotor test; assay type: functional, organism-based
Mus musculus [29] = assay: Induction of sedative effect in albino Swiss CD-1 mouse at 15 mg/kg, ip; assay type: organism-based; conditions: in vivo
Mus musculus [30] = assay: Neurotoxicity in albino CF-1 mouse at 50 mg/kg after 1 hr by rotarod test; assay type: toxicity, organism-based; conditions: in vivo
[31] = biological target: D(3) dopamine receptor (Homo sapiens) (UniProt P35462); assay: Displacement of [3H]-spiperone from human dopamine D3 receptor expressed in CHO cell membranes at 1 uM relative to haloperidol
Chain of D(3) dopamine receptor (Homo sapiens) (P35462 whole entry): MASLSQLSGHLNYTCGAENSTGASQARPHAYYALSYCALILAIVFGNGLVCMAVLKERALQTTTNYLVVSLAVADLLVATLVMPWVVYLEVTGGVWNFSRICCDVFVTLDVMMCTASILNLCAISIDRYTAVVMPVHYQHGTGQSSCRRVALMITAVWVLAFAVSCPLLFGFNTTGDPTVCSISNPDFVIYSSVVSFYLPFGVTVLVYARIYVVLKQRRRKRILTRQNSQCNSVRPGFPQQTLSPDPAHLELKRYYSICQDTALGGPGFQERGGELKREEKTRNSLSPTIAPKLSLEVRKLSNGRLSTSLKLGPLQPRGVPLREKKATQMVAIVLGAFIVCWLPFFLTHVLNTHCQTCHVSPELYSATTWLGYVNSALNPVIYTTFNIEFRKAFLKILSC

Mus musculus [32] = assay: Cognition enhancing effect in albino Swiss CD-1 mouse assessed as reversal of scopolamine-induced amnesia at 20 to 30 mg/kg, ip treated 30 mins prior to acquisition trial followed by scopolamine challenge immediately after acquisition trial by passive avoidance test (reference value: 39.31 +/- 4.01 secs); assay type: functional, organism-based
Rattus norvegicus [33] = assay: In vivo antagonist activity at H3 receptor in RAMH-induced dipsogenic ip dosed Wistar (Krf:(WI) WU) rat model assessed as inhibition of RAMH-water intake administered 30 mins prior to RAMH induction; assay type: functional
Mus musculus [34] = assay: Neurotoxicity in albino CF-1 mouse assessed as increase in subcutaneous pentylenetetrazole-induced continuous seizures at 50 mg/kg, ip measured after 0.25 hrs; assay type: toxicity, organism-based; conditions: in vivo
CYP3A4 = CYP3A4 (Homo sapiens, UniProt P08684); assay: Inhibition of CYP3A4 (unknown origin) at 25 uM by CYP3A4 P450-Glo assay; assay type: ADME
Chain of CYP3A4 (P08684 whole entry): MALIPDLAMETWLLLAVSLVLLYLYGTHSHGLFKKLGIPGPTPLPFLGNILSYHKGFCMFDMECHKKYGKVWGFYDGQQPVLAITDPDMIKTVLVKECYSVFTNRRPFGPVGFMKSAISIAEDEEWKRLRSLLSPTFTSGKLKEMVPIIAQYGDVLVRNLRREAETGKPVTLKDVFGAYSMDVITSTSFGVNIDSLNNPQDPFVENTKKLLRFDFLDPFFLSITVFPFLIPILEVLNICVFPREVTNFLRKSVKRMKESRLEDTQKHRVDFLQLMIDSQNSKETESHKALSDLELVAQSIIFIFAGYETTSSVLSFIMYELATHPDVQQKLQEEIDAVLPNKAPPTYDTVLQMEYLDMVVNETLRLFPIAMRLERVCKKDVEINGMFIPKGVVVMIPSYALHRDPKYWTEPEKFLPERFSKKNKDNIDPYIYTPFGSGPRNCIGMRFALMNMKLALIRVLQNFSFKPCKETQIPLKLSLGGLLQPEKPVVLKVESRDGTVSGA

HepG2 = assay: Cytotoxicity against human HepG2 cells assessed as reduction in cell viability after 72 hrs by MTS assay; assay type: cell-based; conditions: HepG2, 72 h
[35] = Therapeutic index, ratio of ip dosed albino CF-1 mouse TD50 to ip dosed albino CF-1 mouse ED50 for 44 mA current-induced 6 Hz psychomotor test; assay type: toxicity, organism-based; conditions: in vivo, read-out: TI
Rattus norvegicus [36] = assay: Anticonvulsant activity in po dosed Sprague-Dawley rat assessed as protection against maximal electroshock-induced seizures after 1 hr; assay type: functional
Mus musculus [37] = assay: Neurotoxicity in albino CF-1 mouse assessed as increase in subcutaneous pentylenetetrazole-induced continuous seizures at 50 mg/kg, ip measured after 1 hr; assay type: toxicity, organism-based; conditions: in vivo
[38] = biological target: Histamine H1 receptor (Homo sapiens) (UniProt P35367); assay: Displacement of [3H]-pyrilamine from human histamine H1 receptor expressed in CHO cell membranes at 1 uM relative to chlorpheniramine
Chain of Histamine H1 receptor (Homo sapiens) (P35367 whole entry): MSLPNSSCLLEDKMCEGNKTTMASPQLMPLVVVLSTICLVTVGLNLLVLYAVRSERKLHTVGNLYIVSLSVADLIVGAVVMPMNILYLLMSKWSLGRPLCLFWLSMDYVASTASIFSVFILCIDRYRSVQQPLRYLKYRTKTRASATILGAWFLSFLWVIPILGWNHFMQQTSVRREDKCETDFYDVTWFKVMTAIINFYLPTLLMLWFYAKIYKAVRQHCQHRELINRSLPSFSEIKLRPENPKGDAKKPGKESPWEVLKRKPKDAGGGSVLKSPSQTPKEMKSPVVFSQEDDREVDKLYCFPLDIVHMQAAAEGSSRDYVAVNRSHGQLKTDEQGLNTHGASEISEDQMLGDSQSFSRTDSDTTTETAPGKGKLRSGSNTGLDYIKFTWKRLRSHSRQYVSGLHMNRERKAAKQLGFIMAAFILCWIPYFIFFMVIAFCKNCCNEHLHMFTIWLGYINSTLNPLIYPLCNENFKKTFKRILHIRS

[39] = biological target: D(1A) dopamine receptor (Homo sapiens) (UniProt P21728); assay: Displacement of [3H]-SCH23390 from human dopamine D1 receptor expressed in HEK293 cell membranes at 1 uM relative to fluphenazin
Chain of D(1A) dopamine receptor (Homo sapiens) (P21728 whole entry): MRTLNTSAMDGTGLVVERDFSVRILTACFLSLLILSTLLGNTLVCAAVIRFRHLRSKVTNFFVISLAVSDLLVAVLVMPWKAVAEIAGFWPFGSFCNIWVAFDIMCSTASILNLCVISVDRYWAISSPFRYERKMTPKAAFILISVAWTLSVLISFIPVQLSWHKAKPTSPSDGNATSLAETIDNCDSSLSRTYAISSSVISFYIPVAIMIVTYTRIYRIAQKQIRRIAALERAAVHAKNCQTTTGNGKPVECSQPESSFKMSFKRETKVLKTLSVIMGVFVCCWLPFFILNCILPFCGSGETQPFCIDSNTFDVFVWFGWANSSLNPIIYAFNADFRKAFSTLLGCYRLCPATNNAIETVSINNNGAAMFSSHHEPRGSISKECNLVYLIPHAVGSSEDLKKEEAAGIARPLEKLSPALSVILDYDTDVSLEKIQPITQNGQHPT

Mus musculus [40] = assay: Neurotoxicity in albino CF-1 mouse at 65 mg/kg after 2 hrs by rotarod test; assay type: toxicity, organism-based; conditions: in vivo

Ki (Histamine H3 receptor): 0.0539 µM
Ki [16]: 2.31 µM
Activity [19]: inactive
ED50 (Mus musculus [20]): 11.43 mg/kg
inhibition [21]: 2%
inhibition [31]: 12%
inhibition at 25 µM (CYP3A4): 50%
inhibition [38]: 17%
inhibition [39]: 6.7%
SMILES: c1ccc2c(OCCCCCN3CCCCC3)cccc2c1
Activity (Mus musculus [1]): Non-Toxic
Activity (Mus musculus [2]): Non-Toxic
Activity (Mus musculus [3]): Non-Toxic
Activity (Mus musculus [4]): Non-Toxic
selectivity ratio [5]: 2.9
Activity (Mus musculus [6]): Non-Toxic
Activity (Rattus norvegicus [7]): inactive
Activity (Mus musculus [8]): Non-Toxic
ED50 (Mus musculus [9]): 19.2 mg/kg
Activity (Mus musculus [10]): Non-Toxic
Activity (Salmonella typhimurium [11]): Non-Toxic
selectivity ratio [12]: 3.4
Activity (Mus musculus [13]): Non-Toxic
Activity (Rattus norvegicus [14]): inactive
Activity (Rattus norvegicus [15]): Active
TD50 at 0.25 h [17]: 60.6 mg/kg
Activity (Mus musculus [18]): Active
Activity (Mus musculus [22]): Non-Toxic
Activity (Salmonella typhimurium [23]): Non-Toxic
Activity (Mus musculus [24]): Non-Toxic
Activity (Rattus norvegicus [25]): Active
TD50 at 0.25 h [26]: > 500 mg/kg
ED50 (Rattus norvegicus [27]): > 60.6 mg/kg
Activity (Mus musculus [28]): inactive
Activity (Mus musculus [29]): Toxic
Activity (Mus musculus [30]): Non-Toxic
Activity (Mus musculus [32]): Active
ED50 (Rattus norvegicus [33]): 2.37 mg/kg
Activity (Mus musculus [34]): Non-Toxic
IC50 (HepG2): > 50 µM
selectivity ratio [35]: 1.6
ED50 (Rattus norvegicus [36]): 78.1 mg/kg
Activity (Mus musculus [37]): Non-Toxic
Activity (Mus musculus [40]): Non-Toxic
